Data taken from the NIST ThermoML archive (doi:10.1016/j.fluid.2007.04.023).
Numbers after ± are expanded uncertainties.

Conditions: Liquid, Vibrating tube method

CCCCCCCCCCCC [dodecane]
Conditions	mass density [kg/m3]
313.09 K, 1022 kPa	735.79 ± 0.33
313.09 K, 2023 kPa	736.6 ± 0.34
313.09 K, 3017 kPa	737.36 ± 0.35
313.09 K, 4026 kPa	738.14 ± 0.36
313.09 K, 5023 kPa	738.89 ± 0.38
313.09 K, 6032 kPa	739.66 ± 0.39
313.09 K, 7011 kPa	740.38 ± 0.4
313.09 K, 8009 kPa	741.15 ± 0.41
313.09 K, 9026 kPa	741.91 ± 0.43
313.09 K, 10008 kPa	742.66 ± 0.44
313.09 K, 11022 kPa	743.39 ± 0.45
313.09 K, 12012 kPa	744.09 ± 0.46
313.09 K, 13019 kPa	744.82 ± 0.48
313.09 K, 14017 kPa	745.55 ± 0.49
313.09 K, 15025 kPa	746.22 ± 0.5
313.09 K, 16025 kPa	746.91 ± 0.51
313.09 K, 17015 kPa	747.58 ± 0.52
313.09 K, 18022 kPa	748.26 ± 0.54
313.09 K, 19025 kPa	748.93 ± 0.55
313.09 K, 20013 kPa	749.59 ± 0.56
313.09 K, 21015 kPa	750.23 ± 0.57
313.09 K, 22011 kPa	750.9 ± 0.58
313.09 K, 23021 kPa	751.53 ± 0.6
313.09 K, 24015 kPa	752.21 ± 0.61
313.09 K, 24354 kPa	752.42 ± 0.61
322.97 K, 1025 kPa	728.33 ± 0.33
322.97 K, 2028 kPa	729.17 ± 0.34
322.97 K, 3026 kPa	729.97 ± 0.35
322.97 K, 4034 kPa	730.78 ± 0.37
322.97 K, 5021 kPa	731.59 ± 0.38
322.97 K, 6017 kPa	732.37 ± 0.39
322.97 K, 7017 kPa	733.17 ± 0.41
322.97 K, 8041 kPa	733.99 ± 0.42
322.97 K, 9015 kPa	734.73 ± 0.43
322.97 K, 10016 kPa	735.5 ± 0.44
322.97 K, 11019 kPa	736.28 ± 0.46
322.97 K, 12011 kPa	737.01 ± 0.47
322.97 K, 13028 kPa	737.78 ± 0.48
322.97 K, 14041 kPa	738.53 ± 0.49
322.97 K, 14994 kPa	739.22 ± 0.51
322.97 K, 16027 kPa	739.96 ± 0.52
322.97 K, 17001 kPa	740.64 ± 0.53
322.97 K, 18015 kPa	741.35 ± 0.54
322.97 K, 19032 kPa	742.07 ± 0.56
322.97 K, 20004 kPa	742.74 ± 0.57
322.97 K, 21009 kPa	743.43 ± 0.58
322.97 K, 22023 kPa	744.14 ± 0.59
322.97 K, 23009 kPa	744.8 ± 0.6
322.97 K, 24013 kPa	745.5 ± 0.62
322.97 K, 24507 kPa	745.83 ± 0.62
332.8 K, 1023 kPa	721.08 ± 0.33
332.8 K, 2019 kPa	721.96 ± 0.34
332.8 K, 3022 kPa	722.81 ± 0.36
332.8 K, 4030 kPa	723.69 ± 0.37
332.8 K, 5026 kPa	724.53 ± 0.38
332.8 K, 6035 kPa	725.36 ± 0.4
332.8 K, 7014 kPa	726.16 ± 0.41
332.8 K, 8025 kPa	727.03 ± 0.42
332.8 K, 9017 kPa	727.84 ± 0.44
332.8 K, 10020 kPa	728.67 ± 0.45
332.8 K, 11023 kPa	729.46 ± 0.46
332.8 K, 12022 kPa	730.26 ± 0.47
332.8 K, 13004 kPa	731.04 ± 0.49
332.8 K, 14008 kPa	731.81 ± 0.5
332.8 K, 15018 kPa	732.57 ± 0.51
332.8 K, 16023 kPa	733.35 ± 0.53
332.8 K, 17014 kPa	734.08 ± 0.54
332.8 K, 18006 kPa	734.82 ± 0.55
332.8 K, 19024 kPa	735.59 ± 0.56
332.8 K, 20023 kPa	736.32 ± 0.58
332.8 K, 21009 kPa	737.01 ± 0.59
332.8 K, 22009 kPa	737.73 ± 0.6
332.8 K, 23018 kPa	738.45 ± 0.61
332.8 K, 24018 kPa	739.17 ± 0.62
332.8 K, 24665 kPa	739.63 ± 0.63
342.69 K, 1019 kPa	713.8 ± 0.33
342.69 K, 2025 kPa	714.75 ± 0.34
342.69 K, 3025 kPa	715.67 ± 0.36
342.69 K, 4014 kPa	716.58 ± 0.37
342.69 K, 5015 kPa	717.47 ± 0.39
342.69 K, 6017 kPa	718.36 ± 0.4
342.69 K, 7021 kPa	719.25 ± 0.41
342.69 K, 8007 kPa	720.13 ± 0.43
342.69 K, 9019 kPa	721.03 ± 0.44
342.69 K, 10018 kPa	721.86 ± 0.45
342.69 K, 11016 kPa	722.71 ± 0.47
342.69 K, 12013 kPa	723.56 ± 0.48
342.69 K, 13021 kPa	724.39 ± 0.49
342.69 K, 14020 kPa	725.21 ± 0.51
342.69 K, 15030 kPa	726.04 ± 0.52
342.69 K, 16024 kPa	726.83 ± 0.53
342.69 K, 17011 kPa	727.58 ± 0.54
342.69 K, 18025 kPa	728.36 ± 0.56
342.69 K, 19023 kPa	729.15 ± 0.57
342.69 K, 20013 kPa	729.88 ± 0.58
342.69 K, 21006 kPa	730.67 ± 0.6
342.69 K, 22021 kPa	731.41 ± 0.61
342.69 K, 23014 kPa	732.15 ± 0.62
342.69 K, 24013 kPa	732.89 ± 0.63
342.69 K, 24725 kPa	733.44 ± 0.64
352.51 K, 1021 kPa	706.54 ± 0.33
352.51 K, 2027 kPa	707.55 ± 0.35
352.51 K, 3013 kPa	708.48 ± 0.36
352.51 K, 4019 kPa	709.46 ± 0.37
352.51 K, 5027 kPa	710.45 ± 0.39
352.51 K, 6014 kPa	711.35 ± 0.4
352.51 K, 7020 kPa	712.33 ± 0.42
352.51 K, 8000 kPa	713.23 ± 0.43
352.51 K, 9024 kPa	714.18 ± 0.44
352.51 K, 10009 kPa	715.07 ± 0.46
352.51 K, 11022 kPa	715.96 ± 0.47
352.51 K, 12012 kPa	716.84 ± 0.48
352.51 K, 13026 kPa	717.71 ± 0.5
352.51 K, 14017 kPa	718.6 ± 0.51
352.51 K, 15021 kPa	719.45 ± 0.52
352.51 K, 16022 kPa	720.3 ± 0.54
352.51 K, 17012 kPa	721.08 ± 0.55
352.51 K, 18027 kPa	721.95 ± 0.56
352.51 K, 19013 kPa	722.74 ± 0.58
352.51 K, 20028 kPa	723.53 ± 0.59
352.51 K, 21021 kPa	724.33 ± 0.6
352.51 K, 22023 kPa	725.14 ± 0.62
352.51 K, 23008 kPa	725.88 ± 0.63
352.51 K, 24020 kPa	726.65 ± 0.64
352.51 K, 24813 kPa	727.31 ± 0.65
362.29 K, 1015 kPa	699.21 ± 0.33
362.29 K, 2020 kPa	700.31 ± 0.35
362.29 K, 3015 kPa	701.33 ± 0.36
362.29 K, 4012 kPa	702.34 ± 0.38
362.29 K, 5029 kPa	703.4 ± 0.39
362.29 K, 6009 kPa	704.36 ± 0.41
362.29 K, 7029 kPa	705.38 ± 0.42
362.29 K, 8013 kPa	706.3 ± 0.43
362.29 K, 9012 kPa	707.31 ± 0.45
362.29 K, 10038 kPa	708.31 ± 0.46
362.29 K, 11027 kPa	709.22 ± 0.48
362.29 K, 12009 kPa	710.09 ± 0.49
362.29 K, 13007 kPa	711.04 ± 0.5
362.29 K, 14015 kPa	711.96 ± 0.52
362.29 K, 15008 kPa	712.81 ± 0.53
362.29 K, 16034 kPa	713.71 ± 0.54
362.29 K, 17030 kPa	714.59 ± 0.56
362.29 K, 18011 kPa	715.43 ± 0.57
362.29 K, 19021 kPa	716.29 ± 0.58
362.29 K, 20007 kPa	717.15 ± 0.6
362.29 K, 21017 kPa	717.94 ± 0.61
362.29 K, 22032 kPa	718.77 ± 0.62
362.29 K, 23002 kPa	719.6 ± 0.64
362.29 K, 24005 kPa	720.38 ± 0.65
362.29 K, 24809 kPa	721.05 ± 0.66
